Measured values reported in the OligoGym collection.
These antisense oligonucleotides have a phosphorothioate backbone; sugars and methylation of C are not fully specified.

target: WWP1; conditions: ASO
Further: test concentration or dose not given here.

Sequence	remaining target (mRNA or protein) (fraction of control)
ATCATCAACTCTTCTTTCCC	0.7
ATGTCAACAGAAAAGTACAT	≥ 1
TATGAAAGATGGTCTGGATT	0.99
AACAGTAGTACTAGTGCAAT	≥ 1
AACTTCAGGTCATGTGAAGT	≥ 1
AAATAACGGAAGTGAGCAAG	0.88
AGTATCAATAGATTCCAAAT	≥ 1
TCCCATTGCGAGGATCTTTG	≥ 1
AAGGTTGTGGTCTCTCCCAT	≥ 1
TTTCTGAGGAAGTCAGTATT	≥ 1
ATTCCAATTCTGCACTGGTA	≥ 1
AGAATGGTAAAGAGAAACCA	≥ 1
TCAGACACTACTGGAGTACC	0.76
GTTGGTGCAAATGAGGATGA	0.95
ATCTGCAGACAATAGTTGTT	≥ 1
TCCCAGACTGCTGCCGTACA	0.47
ACTAGAGTGCTTGTAGGTAC	≥ 1
TAAGCGCCTCCTCAAGTCAT	0.86
CCTGGTGGCAAAGGTCCATA	≥ 1

Sequence	remaining target (mRNA or protein) (fraction of control)
GCAGGCTCAGATGCGAGTGG	≥ 1
CTTTGTTCCCACCCTGATGG	0.98
TTTGTGTTATGATTCACAAA	0.95
GCATAGCTCCCTGCAATTGG	≥ 1
AACATTGAAGCCGAATAGAG	≥ 1
CTGTTGGAAGGAATCTTCAA	≥ 1
GAATTAGAGGTGTCAGGCTC	≥ 1
TTCAAAATTTCGGACAGATT	≥ 1
CACCATAATCAAGTCCTTCT	0.52
GATCCACATAATAGGTTCTA	≥ 1
ATCTTTGTTCTCCTCAGTCA	0.92
AATTTCCCAGCCTTCTGGCA	≥ 1
ATACATTGGGTTCAAAACTT	0.92
CATAAGCAATTTGTGGACCA	≥ 1
ATTGATCTTTACATGACTAG	0.83
TGTTGTTATCTCTTATCCAG	0.92
AAATAGTGCCATGGCAATAA	0.98
GTTGTTGTTCTGGTGTTATG	0.95

target: NCOA1; conditions: ASO

Sequence	remaining target (mRNA or protein) (fraction of control)
GGTTATTCAGTCAGTAGC	0.57
TCATTAATTCCTCCTGAT	0.48
AAAAGTGGTTATTCAGTC	0.62
TCCTTTAAAAGTGGTTAT	0.93
AAAGTGGTTATTCAGTCA	0.71
GTCCCCGCCTACCAGATT	0.56
GAGCTAATACACTGGTCT	0.55
TCCGTGCTTGATGCCAGT	0.34
TTTAAAAGTGGTTATTCA	0.74
TCATGATGATGAAGCCGA	0.58
CTACGACCTGAAGAATGG	0.76
TGGTTATTCAGTCAGTAG	0.71
ATGATGATGAAGCCGAAT	0.93
CGAATTCCACCACACTGG	0.69
CCTTTAAAAGTGGTTATT	≥ 1
AGTGGTTATTCAGTCAGT	0.67

Sequence	remaining target (mRNA or protein) (fraction of control)
GTTCATTCCTGGCATCTG	0.66
TTCCTTTAAAAGTGGTTA	0.71
AGCTGTCAATGTCACTAA	0.43
TAAAAGTGGTTATTCAGT	0.79
GGTCTGAGCTCTGCTGGC	0.24
CCTTGACTACTTGATGAG	0.77
TTAAAAGTGGTTATTCAG	0.79
ATGCCAACAGGAGCAGTT	0.51
CTGAGGATTGATTCCAGT	0.67
CTGAGGACTGGAGAACTG	0.44
CATGATGATGAAGCCGAA	0.7
CTTCCTCACTAAATCTTC	≥ 1
CTTTAAAAGTGGTTATTC	≥ 1
GTGGTTATTCAGTCAGTA	0.56
CTGAAAGTCTGTCATTGT	0.95
TGCTTGGTCATAAAGGAT	0.74
